Measurements as given in publication PMC6196658, “Activity of Thioallyl Compounds From Garlic Against Giardia duodenalis Trophozoites and in Experimental Giardiasis” (Frontiers in Cellular and Infection Microbiology, 2018).
In brackets after ≈: the same amount, converted by molar mass. Several values for one entry are separate records, joined by “and”; a condition that tells them apart may be missing. Equal entries are not always repeated. Where two headings read alike, the source gives them in different places.

How the values were obtained:
[1] = test system: G. duodenalis trophozoites; assay: Cell cycle stages, PI flow cytometry; format: cell-based, Giardia duodenalis; conditions: 1.35 μM, 24 h
Experimental: (§1) The identification and quantitative determinations of trophozoites were carried out as follows: (a) apoptosis or necrosis were determined using anti-annexin V-fluorescein isothiocyanate (FITC) antibodies or PI as respective markers, (b) oxidative stress was determined by formation of reactive oxygen species (ROS) with the fluorescent ROS-complexing agent 5-(and 6)-carboxy 2′7′-dichlorodihydrofluorescein diacetate (H2DCFDA), and (c) determination of trophozoites cell cycle stages (G1, S, G2, and G2/M) after exposure to ALC or to a control drug (albendazole, ABZ) was carried out as previously described (Martínez-Espinosa et al., [2015]). In all these assays 20,000 cells per sample were recorded.

[2] = test system: G. duodenalis trophozoites; assay: Annexin V-PI flow cytometry (apoptosis/necrosis); format: cell-based, Giardia duodenalis; conditions: 0.48 μM, 24 h
Experimental: as §1

[3] = test system: G. duodenalis trophozoites; assay: ROS formation, H2DCFDA flow cytometry; format: cell-based, Giardia duodenalis
Experimental: as §1

[4] = test system: G. duodenalis trophozoites; assay: In vitro susceptibility, subculture in liquid medium (SCLM); format: cell-based, Giardia duodenalis (WB strain); conditions: for MLC (mM) ±SD / IC50: SCLM, 24 h exposure; for IC50: read-out: IC50 (mM) ±SD
[5] = test system: cysteine protease activities in trophozoite lysates; assay: Proteolytic activity assay (gelatin zymogram); format: biochemical, Giardia duodenalis
Experimental: Trophozoite lysates were prepared as mentioned above except that cell lysis was carried out by sonication in 1.5 mL microcentrifuge tubes under ice bath using eight 15-s pulses at 80% amplitude with resting periods of 30 s (Ultrasonic Processor mod. CV19). Protein concentration was adjusted to 2 mg/mL and aliquoted in 25 μL fractions that were incubated for 30 min room temperature with 2–5 μL stock solutions of representative TACs (ALC, DADS, and AM). The reaction mixtures were diluted in Laemmli's sample buffer, loaded in wells of 10% acrylamide-02% gelatin slab gels and these were electrophoretically analyzed using 80 V/4°C. After this, gels were incubated in a solution of triton X-100 2.5% (v/v) in water for 1 h and washed 3 times with distilled water. Bands with proteolytic activity were detected as follows: gels were incubated in acetate buffer pH 5.5 with 1 mM DTT for 16 h at 37°C under constant stirring, washed 3 times with distilled water and stained with Coomassie blue (BioRad) for 2 h at 37°C under constant stirring. Finally, gels were washed with distilled water and incubated with a solution of 5% acetic acid/40% methanol (v/v). Gel images were documented with a UVP High Performance Ultraviolet Transilluminator and software Launch DocItLS.

[6] = target: T1, giardipain-1 (Giardia intestinalis, UniProt P92132); assay: Inhibition of cytolytic effect of giardipain-1 on IEC6 cell monolayers; format: cell-based, Giardia duodenalis; conditions: 100 min
T1 construct: the 25 kDa band that contains the processed form of the cathepsin B-like protease named as giardipain-1; endogenous in cells
T1 sequence (P92132 75-300): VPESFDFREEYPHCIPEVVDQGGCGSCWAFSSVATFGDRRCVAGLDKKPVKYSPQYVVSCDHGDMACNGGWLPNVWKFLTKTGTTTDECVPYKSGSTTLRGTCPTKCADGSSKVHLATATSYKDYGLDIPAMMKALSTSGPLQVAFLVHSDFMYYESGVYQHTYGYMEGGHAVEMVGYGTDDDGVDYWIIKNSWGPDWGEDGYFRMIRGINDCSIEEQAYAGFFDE
Experimental: (§2) Additional assays were carried out using the MLCs of TACs (without giardipain-1) previously obtained in trophozoite cultures to monitor their toxicity. These solutions were added to monolayers of the intestinal cell line IEC6 grown in 1 cm^2-microwells and incubated for 100 min at 37°C. After incubation, supernatants were discarded and monolayers were fixed with 2% paraformaldehyde in PBS. The effects of TACs and E64 on the cytolytic effect of giardipain-1 were evaluated by light microscopy using Nomarski optics (Axioskop 40, Zeiss).

[7] = test system: thiol groups exposed in G. duodenalis trophozoite proteins; assay: Thiol-modifying activity (inhibition of thiol-DTNB complexes); format: biochemical, Giardia duodenalis; conditions: 100 μg soluble trophozoite protein, 10 min 37°C, DTNB 412 nm
Experimental: The technique reported by Lawson and Wang ([1993]) was followed. In these assays trophozoites were collected from 60 mL flasks, washed 3 times with PBS and resuspended in 500 μL PBS containing a 1:12.5 dilution of a commercial mixture of protease inhibitors (Complete^TM, Roche Diagnostics GmbH, Indianapolis, IN, USA) and lysed by sonication at 12 microns/60% amplitude (Ultrasonic apparatus Sonic UVX1130PB). Soluble proteins were recovered by centrifugation at 15,400 × g for 30 min at 4°C and protein concentration was determined by the Bradford technique. These samples were adjusted to a concentration of 1 mg/mL. Reactions were carried out in 1.5 mL microcentrifuge tubes with a mixture of 100 μg protein (100 μL) and NaH2PO4 45 mM pH 7.0 mM (800 μL) to which increasing volumes of TACs stocks or a positive control with the thiol derivatizing agent MMTS prepared at 50 mM in the same buffer, were added and total volume was adjusted to 1 mL. After incubation for 10 min at 37°C, 100 μL of 1.5 mM dithionitrobenzoic acid (DTNB, Ellman's reagent) were added to each tube and following incubation for 10 min at room temperature the absorbances (yellow solutions) were recorded at 412 nm (Smart Spec 3000^TM, Bio-Rad, Hercules, CA, USA). A calibration curve was obtained using increasing volumes (0–100 μL) of 15.5 mM cysteine instead protein extracts and the maximal blocking concentration (MBC) corresponding to a complete absence of thiol-DTNB complexes produced by TACs were calculated using the least-square method (Microsoft Excel^TM).

[8] = test system: IEC6 cell monolayers; assay: Toxicity of TACs on IEC6 cell monolayers; format: cell-based; conditions: 275 mM, without giardipain-1, 100 min
Experimental: as §2

[9] = test system: G. duodenalis trophozoites; parameters: method as in Argüello-García et al., 2004; conditions: positive control drug; ref Argüello-García et al., 2004; cited from earlier work
[10] = test system: G. duodenalis trophozoites; assay: Efficacy in experimental giardiasis; conditions: read day 13
Experimental: Eighty male Mongolian gerbils (M. unguiculatus) 6–10 weeks old, weighted 45–60 g and sentinel-checked gerbils free of intestinal parasites were kept in individual cages and distributed in 12 groups of 6 animals per treatment and experimental infections were performed as described elsewhere (Argüello-García and Ortega-Pierres, [1997]). In brief, animals were inoculated intragastrically with 1 × 10^6 G. duodenalis trophozoites in 500 μl sterile PBS per os using gavage under ether anesthesia. Control animals received 500 μl sterile PBS each. […] As additional control, one group of animals received MTZ (38.4 mg/kg at single or double dose). […] Treatment efficacy was evaluated by determining the presence or absence of trophozoites in intestinal contents of control and treated gerbils at day 13 post-infection. For this, gerbils were euthanized by an intraperitoneal injection of pentobarbital at a dose of 150 mg/kg to minimize stress and to reduce suffering, then a 10 cm-long section of intestine (from stomach ending, equivalent to nearly the entire small intestine) was excised after laparotomy, and it was longitudinally opened and rinsed in 20 mL PBS at 4°C for 20 min under shaking (720 rpm, Heidolph^TM rotatory shaker) to determine trophozoites number after parasite detachment from microvilli. Supernatant was collected and centrifuged at 750 × g for 10 min at 4°C, cell pellet was resuspended in 1 mL PBS and trophozoites were counted using a haemocytometer. Gerbils were scored as cured if no trophozoites were recovered from infected animals.

CCCSc1ccc2nc(NC(=O)OC)[nH]c2c1 [ABZ, albendazole]
cells at G2 phase [1]: 69.9% | cells at S phase [1]: 22.1% | R1 cells positive for necrosis (PI+) [2]: 5% | cells in apoptosis (early plus late) [2]: 41.0% | cells positive for ROS (total) ([3]; ABZ control, 0.48 μM per Figure 9, 24 h): 33.85%

C=CCS [AM, allyl mercaptan]
MLC (mM) ±SD [4]: 3.06 mM (≈ 227 µg/mL) | MLC (mM) ±SD ([4]; listed as Allyl Mercaptan (AM)): 3.06 ± 0.7 mM (≈ 227 µg/mL) | IC50 [4]: 0.83 ± 0.2 mM | effect on proteolytic bands in zymogram ([5]; bands of 75, 60 and 25 kDa, concentration not given): significant increase of activity | effect on giardipain-1 cytopathic damage in IEC6 monolayers ([6]; 514 mM pre-incubated 30 min with giardipain-1 16 μg/mL): noticeably blocked these effects

C=CCSC [AMS, allyl methyl sulfide]
MLC (mM) ±SD [4]: 74.28 mM (≈ 6550 µg/mL) | MLC (mM) ±SD ([4]; listed as Allyl Methyl Sulfide (AMS)): 74.28 ± 12.3 mM (≈ 6550 µg/mL) | IC50 [4]: 40.3 ± 3.5 mM | MBC (maximal blocking concentration) ± SD [7]: 845.9 mmol/mg protein and 845.96 ± 78.1 mmol/mg protein

C=CCSSCC=C [DADS, diallyl disulphide]
MLC (mM) ±SD [4]: 2.66 mM (≈ 389 µg/mL) | MLC (mM) ±SD ([4]; listed as Diallyl Disulfide (DADS)): 2.66 ± 0.8 mM (≈ 389 µg/mL) | IC50 [4]: 1.4 ± 0.6 mM | toxicity to IEC6 cell monolayers [8]: affected some cells | effect on proteolytic bands in zymogram ([5]; 275 mM): could diminish similar activities except for the one at 60 kDa | effect on giardipain-1 cytopathic damage in IEC6 monolayers ([6]; 275 mM pre-incubated 30 min with giardipain-1 16 μg/mL): reduced the frequency of cells displaying apoptotic damage | MBC (maximal blocking concentration) ± SD [7]: > 200 mmol/mg protein and 224.58 ± 18.8 mmol/mg protein

C=CCSCC=C [DAS, diallyl sulfide]
IC50 ([4]; Giardia duodenalis): 14.5 ± 2.3 mM | MLC (mM) ±SD [4]: 23.71 mM (≈ 2710 µg/mL) | MLC (mM) ±SD ([4]; listed as Diallyl Sulfide (DAS)): 23.71 ± 6.0 mM (≈ 2710 µg/mL) | MBC (maximal blocking concentration) ± SD [7]: 351.3 mmol/mg protein and 351.34 ± 78.9 mmol/mg protein

C=CCSSSCC=C [DATS, diallyl trisulfide]
MLC (mM) ±SD [4]: 1.35 ± 0.18 mM (≈ 241 µg/mL) | MBC (maximal blocking concentration) ± SD [7]: > 200 mmol/mg protein and 201.61 ± 33.4 mmol/mg protein

CC(C)C[C@H](NC(=O)[C@H]1O[C@@H]1C(=O)O)C(=O)NCCCCN=C(N)N [E64, reference compound]
effect on proteolytic bands in zymogram ([5]; 20 μM): selective inhibition on the 25 kDa band | effect on giardipain-1 cytopathic damage in IEC6 monolayers ([6]; 20 μM pre-incubated 30 min with giardipain-1 16 μg/mL): efficiently inhibited the giardipain-1 induced damage

CSS(C)(=O)=O [MMTS, methyl methanethiosulfonate, reference compound]
MBC (maximal blocking concentration) ± SD [7]: 55.45 ± 3.2 mmol/mg protein

Cc1ncc([N+](=O)[O-])n1CCO [MTZ, metronidazole, reference compound]
inhibition at 3 µM ([4]; Giardia duodenalis, 3.0 μM, 24 h, positive control, read-out: inhibition of trophozoite growth): 45 to 55% | inhibition at 5.9 µM ([4]; Giardia duodenalis, 5.9 μM, 24 h, positive control, read-out: inhibition of trophozoite growth): > 95% | IC50 [9]: 0.003 mM | MLC [9]: 0.0059 mM (≈ 1.01 µg/mL) | cure rate (gerbils without trophozoites) ([10]; 36 mg/kg at twice dose): 5 out of 6 | cure rate (gerbils without trophozoites) ([10]; 36 mg/kg single dose): 3 out of 6

CC(C)(C)OO [TBHP, tert-butyl hydroperoxide]
cells positive for ROS (total) ([3]; TBHP control, 400 μM per Figure 9, 24 h): 17.1%

O=C([O-])c1cc[c]([Hg][OH])cc1.[Na+] [pHMB, sodium p-hydroxymercuribenzoate, reference compound]
effect on proteolytic bands in zymogram ([5]; 10 mM): full inhibition of all proteolytic bands

S-allyl-L-cysteine [SAC]
MLC (mM) ±SD [4]: 69.1 mM | MLC (mM) ±SD ([4]; listed as S-Allyl Cysteine (SAC)): 69.10 ± 13.1 mM | IC50 [4]: 40.8 ± 6.3 mM | MBC (maximal blocking concentration) ± SD [7]: 1260.9 mmol/mg protein and 1260.99 ± 125.6 mmol/mg protein
